# Source: US8383084B2, “Destruction of spores through glycoconjugate enhanced phagocytosis” (priority 2006, dated 2013)
# Read-outs that look alike come from different tables or passages of the source.
# Assays:
# B. cereus spores [1] = assay type: cell-based, Bacillus cereus ATCC 11778
# murine macrophages [2] = assay type: cell-based, C57BL/6 mice
# human macrophages = assay type: cell-based
# murine macrophages [3] = assay type: cell-based, C57BL/6 mice; remark: listed apart in the source
# murine macrophages [4] = assay: Comet assay (tail vs. head) and phagocyte diameter; assay type: cell-based, C57BL/6 mice; conditions: for diameter of phagocytes upon uptaking glycoconjugate-coated spores: compared to macrophages only, spores only, glycoconjugate alone; for uptake of coated spores and spore-induced cell death: glycoconjugate-coated spores, B; for uptake of coated spores and spore-induced cell death / effect of glycoconjugate-treated spores on murine macrophages (Comet assay): FIG. 10A; for diameter of phagocytic cells, glycoconjugate alone: glycoconjugates alone, dilutions 10^0, 10^-2, 10^-4; for effect of glycoconjugate-treated spores on murine macrophages (Comet assay): macrophages exposed to treated spores, 10B; for effect of glycoconjugate alone on macrophages (Comet assay): macrophages treated with glycoconjugate only, FIG. 10E, 10F
# Protocol: Possible induction of apoptosis was determined by Comet assay (FIG. 10) using Trevigen (Gaithersburg, Md.) Comet assay kit and analyzed under epifluorescence microscope (FIG. 10). Nuclei with damaged DNA have the appearance of a comet with a bright head and a tail, whereas nuclei with undamaged DNA appear round, with no tail. Ration tail vs. head was measured in order to determine apoptosis (FIG. 10).
# B. cereus spores [5] = assay type: cell-based, Bacillus cereus ATCC 11778; remark: listed apart in the source
# murine macrophages [6] = system: murine macrophages
Substance,"destruction of spores, following spores' exposure (B. cereus spores [1])","destruction of spores, prior to exposure (B. cereus spores [1])",destruction of the spores (in words) (B. cereus spores [1]),"spores killed, following exposure condition (B. cereus spores [1])","spores killed, prior to and during exposure conditions (B. cereus spores [1])",induction of macrophage NO production (murine macrophages [2]),macrophage NO production (extent) (murine macrophages [2]),human macrophage NO production (human macrophages),LDH release/production (murine macrophages [3]),diameter of phagocytes upon uptaking glycoconjugate-coated spores (murine macrophages [4]),uptake of coated spores and spore-induced cell death (murine macrophages [4]),"diameter of phagocytic cells, glycoconjugate alone (murine macrophages [4])",effect of glycoconjugate-treated spores on murine macrophages (Comet assay) (murine macrophages [4]),effect of glycoconjugate alone on macrophages (Comet assay) (murine macrophages [4]),destruction of spores (B. cereus spores [5]),dose at which 50% of the spores were killed (B. cereus spores [5]),macrophage viability (murine macrophages [6]),destruction of the spores (in words) (B. cereus spores [5])
GalNAcα1-3 GalNAcβ-PAA-flu [GalNAcα1-3GalNAcβ-PAA-flu],76.4%,65.5%,almost total destruction of the spores,~50%,70-80%,induced macrophage NO production,less stimulatory,stimulate human macrophage nitric oxide (NO) production,11.9%,increased,stimulates the uptake of coated spores and protect from spore-induced cell death,do not affect the diameter of phagocytic cells,pro-apoptotic effects,do not induce death,86.4%,100 pg/mL,up to 87%,–
Galα1-3 GalNAcα-PAA-flu [Galα1-3GalNAcα-PAA-flu],–,–,–,–,–,induced macrophage NO production,doubled,–,8.9%,increased,stimulates the uptake of coated spores and protect from spore-induced cell death,do not affect the diameter of phagocytic cells,pro-apoptotic effects,do not induce death,89.4%,1 pg/mL,≤ 97.8%,almost total destruction of the spores
